From article PMC9570594, “Development of Novel Pyridine-Thiazole Hybrid Molecules as Potential Anticancer Agents” (Molecules, 2022)

Legend:
[1] = system: Leukemia cell lines (MG_MID); assay: NCI five-dose SRB assay; assay type: cell-based; conditions: Homo sapiens, 48 h
[2] = system: NCI-H460 (Non-Small Cell Lung Cancer); assay: NCI five-dose SRB assay; assay type: cell-based; conditions: Homo sapiens, 48 h
[3] = system: LOX IMVI (Melanoma); assay: NCI one-dose SRB assay; conditions: 10 μM, 48 h
Protocol: (§1) Primary anticancer assays (Table 3) on a panel of 60 cancer cell lines at one dose-assay (10^−5 M) were performed according to the NCI protocol, as described elsewhere [31, 32, 33, 34, 35].
(§2) A primary anticancer assay was performed on a panel of approximately sixty human tumor cell lines derived from nine neoplastic diseases, in accordance with the protocol of the Drug Evaluation Branch, National Cancer Institute, Bethesda [31, 32, 33, 34, 35]. Tested compounds were added to the culture at a single concentration (10^−5 M) and the cultures were incubated for 48 h. End point determinations were made with a protein binding dye, Sulphorhodamine B (SRB). […] The percentage growth was evaluated spectrophotometrically versus controls not treated with test agents.

[4] = system: Breast Cancer cell lines (MG_MID); assay: NCI five-dose SRB assay; assay type: cell-based; conditions: Homo sapiens, 48 h
[5] = system: HL-60(TB) (Leukemia); assay: NCI five-dose SRB assay; assay type: cell-based; conditions: Homo sapiens, 48 h
[6] = system: A549 (lung); assay: MTT assay of cell viability; conditions: Homo sapiens, A549, 72 h
[7] = system: NCI-H522 (Non-Small Cell Lung Cancer); assay: NCI one-dose SRB assay; conditions: 10 μM, 48 h
Protocol: as §1, §2

[8] = system: Colo 205 (Colon Cancer); assay: NCI five-dose SRB assay; assay type: cell-based; conditions: Homo sapiens, 48 h
[9] = system: MCF-7 cells; assay: Clonogenic assay; assay type: cell-based, human; conditions: 10 days
Protocol: This assay essentially tests every cell in the population for its ability to undergo “unlimited” division. […] At 1 µM concentration, it reduced the ability of the MCF-7 single cell to grow into a colony to 36%. […] With a concentration equivalent to 10 µM of the compound 4, the DMSO increased the cell’s ability to grow in colony.
MCF-7 cells were seeded in triplicate in 6-well plates (CytoONE, STARLAB International GmbH, Germany) at a density of 500 cells per well. After 24 h incubation, the compound 4 was added in 1 and 10 μM concentrations and cells were treated for 10 days. Colonies containing ≥ 50 cells were fixed with 50% (v/v) methanol in the PBS and stained with crystal violet (Sigma-Aldrich, Burlington, MA, USA). Stained colonies were counted and expressed as a fraction of the untreated control.

[10] = system: BALB-3T3 (normal mouse fibroblasts); assay: MTT assay of cell viability; conditions: BALB/3T3, 72 h
[11] = system: U251 (CNS Cancer); assay: NCI one-dose SRB assay; conditions: 10 μM, 48 h
Protocol: as §2

[12] = system: MCF-7 cell line; assay: Time-dependent viability test (MTT); assay type: cell-based, human; conditions: MCF-7, 10 µM
Protocol: A strong correlation was detected between the treatment time and an anti-proliferative potential. The cytotoxic effect of this compound develops after […] of incubation. This feature may explain the difference of cell viability compared with the NCI results which were obtained at 48th hour of incubation of cells with derivative 4. […] The result obtained at 48th hour of treatment of the MCF-7 cells with the compound 4 in concentration 10 µM correlates to some extent with data of the NCI screening. At that time point, 43% of the cells died.
Time-dependent viability data were obtained as a result of 24, 48, 72, and 124 h MTT tests performed on the MCF-7 cells treated with the compound 4 (10 μM).

[13] = system: KM12 (Colon Cancer); assay: NCI five-dose SRB assay; assay type: cell-based; conditions: Homo sapiens, 48 h
[14] = system: HCT-15 (Colon Cancer); assay: NCI five-dose SRB assay; assay type: cell-based; conditions: Homo sapiens, 48 h
[15] = system: Jurkat (leukemia); assay: MTT assay of cell viability; conditions: Homo sapiens, 72 h
[16] = system: HCT-116 (Colon Cancer); assay: NCI five-dose SRB assay; assay type: cell-based; conditions: Homo sapiens, 48 h
[17] = system: T-47D (Breast Cancer); assay: NCI five-dose SRB assay; assay type: cell-based; conditions: Homo sapiens, T47D, 48 h
[18] = system: A549/ATCC (Non-Small Cell Lung Cancer); assay: NCI five-dose SRB assay; assay type: cell-based; conditions: Homo sapiens, 48 h
[19] = system: OVCAR-4 (Ovarian Cancer); assay: NCI five-dose SRB assay; assay type: cell-based; conditions: Homo sapiens, 48 h
[20] = system: SK-MEL-2 (Melanoma); assay: NCI five-dose SRB assay; assay type: cell-based; conditions: Homo sapiens, 48 h
[21] = system: HS 578T (Breast Cancer); assay: NCI five-dose SRB assay; assay type: cell-based; conditions: Homo sapiens, 48 h
[22] = system: EKVX (Non-Small Cell Lung Cancer); assay: NCI five-dose SRB assay; assay type: cell-based; conditions: Homo sapiens, 48 h
[23] = system: NCI-H322M (Non-Small Cell Lung Cancer); assay: NCI five-dose SRB assay; assay type: cell-based; conditions: Homo sapiens, 48 h
[24] = system: MCF-7 cells; assay: PARP-1 inhibition in vitro: MTT after Fluzoparib pretreatment; assay type: cell-based, human; conditions: Homo sapiens, MCF7; MCF-7, compound alone (no preincubation), 72 h MTT; read-out: IC50
Protocol: Taking into account the above data, PARP1 inhibition in vitro was investigated using pretreatment of the MCF-7 cells with the Fluzoparib, a potent PARP1 inhibitor in the non-toxic concentrations of 5, 10, and 15 µM. It had no significant growth inhibitory effect in such doses, and a reduction of cell viability by only 10–12% was observed compared to control (non-treated) cells. […] The preincubation step was used to bind PARP1 molecules, which were the potential targets of the studied compounds and to test if it would affect the activity of 3 and 4. […] The preincubation of cells with the Fluzoparib decreased their sensitivity to the compound 3 treatment in a less pronounced manner, compared with the effect of the compound 4. […] Changes in structure of the started compound 3 may cause an enhancement of the ability of molecule 4 to inhibit the activity of PARP1.
To determine PARP inactivation, the MCF-7 cells were pretreated for 2 h in the non-toxic concentrations of 5, 10, 15 µM of the Fluzoparib (Med Chem Express, Monmouth Junction, NJ, USA), a potent PARP1 inhibitor used in the chemotherapy. Then, the medium was removed and increasing doses of the compounds 3 and 4 were added and cells were incubated for the next 72 h. The IC50 values of compounds were determined by the MTT assay, as described.

[25] = system: MCF-7 cells; assay: Chemical synthetic lethality: MTT after preincubation with MGMT inhibitor Lomeguatrib; assay type: cell-based, human; conditions: for IC50: Homo sapiens, MCF7, 72 h MTT
[26] = system: Renal Cancer cell lines (MG_MID); assay: NCI five-dose SRB assay; assay type: cell-based; conditions: Homo sapiens, 48 h
[27] = system: NCI-H522 (Non-Small Cell Lung Cancer); assay: NCI five-dose SRB assay; assay type: cell-based; conditions: Homo sapiens, 48 h

Question: With `CCOC(=O)c1ccc(NC(=O)CSC(CC(=O)c2sc(Nc3ccccn3)nc2C)c2ccccc2F)cc1` (stereo not drawn) [Compound 4, Ethyl 4-[[2-[1-(2-Fluorophenyl)-3-[4-methyl-2-(2-pyridylamino)thiazol-5-yl]-3-oxopropyl]sulfanylacetyl]amino]benzoate] as the compound, how does the GI50 [1] read?
Answer: 22.5 µM

Question: What about the GI50 [2] of the same compound?
Answer: 31.2 µM

Question: What about the Growth % [3] of the same compound?
Answer: −76.78%

Question: And the GI50 [4]?
Answer: 14.4 µM

Question: What about the GI50 [5] of the same compound?
Answer: 21.4 µM

Question: And the IC50 [6]?
Answer: 8.05 ± 0.24 µM

Question: And the Growth % [7]?
Answer: −22.73%

Question: What about the GI50 [8] of the same compound?
Answer: > 100 µM

Question: And the “ability of single cell to grow into a colony (compared with control)” value ([9]; MCF-7, 1 µM)?
Answer: 36%

Question: What about the colony formation ([9]; MCF-7, 10 µM) of the same compound?
Answer: No colony formation was observed

Question: What about the IC50 [10] of the same compound?
Answer: 7.79 ± 0.38 µM

Question: What about the Growth % [11] of the same compound?
Answer: −70.41%

Question: And the cells killed ([12]; 24 h)?
Answer: 19.9%

Question: And the cells died ([12]; 48 h)?
Answer: 43%

Question: What about the cells died ([12]; 124 h) of the same compound?
Answer: 90%

Question: And the GI50 [13]?
Answer: 55.6 µM

Question: And the GI50 [14]?
Answer: 25.8 µM

Question: And the IC50 [15]?
Answer: 5.36 ± 0.16 µM

Question: And the GI50 [16]?
Answer: 23 µM

Question: And the GI50 [17]?
Answer: 18 µM

Question: And the GI50 [18]?
Answer: 75.7 µM

Question: And the GI50 [19]?
Answer: 66.1 µM

Question: What about the GI50 [20] of the same compound?
Answer: 44.9 µM

Question: And the GI50 [21]?
Answer: 14.9 µM

Question: What about the GI50 [22] of the same compound?
Answer: 19 µM

Question: And the GI50 [23]?
Answer: 25.4 µM

Question: What about the IC50 [24] of the same compound?
Answer: 3.53 µM

Question: What about the IC50 ([25]; MCF-7, 3 h preincubation with Lomeguatrib, read-out: IC50 with the MGMT inhibitor) of the same compound?
Answer: 0.72 µM

Question: And the IC50 ([25]; MCF-7, compound alone, read-out: IC50)?
Answer: 2.28 µM

Question: And the “enhancement of sensitivity by Lomeguatrib preincubation” value ([25]; MCF-7)?
Answer: 3 times

Question: And the “combination effect with the MGMT inhibitor” value ([25]; MCF-7, compared with individual treatments)?
Answer: synergistic activity

Question: And the GI50 [26]?
Answer: 33.4 µM

Question: What about the GI50 [27] of the same compound?
Answer: 21.6 µM
